Here are results for two compounds from patent publication US20190282569A1, “STABLE PHARMACEUTICAL COMPOSITION” (ASTELLAS PHARMA INC., priority 2016, published 2019).

Data set [1] can be described thus: Stability of the drug substance itself. The format is physicochemical. The settings on record: drug substance alone, without pharmaceutical additives.
The subject of data set [2] is epidermal growth factor receptor (EGFR) mutant kinase. As to conditions: disclosed in Patent literature 1 (WO 2013/108754); cited from earlier work.

As to `C=CC(=O)N1CC[C@@H](Oc2nc(Nc3ccc(N4CCC(N5CCN(C)CC5)CC4)cc3)c(C(N)=O)nc2CC)C1.CS(=O)(=O)O` [compound A monomethanesulfonate, 5-{[(3R)-1-acryloylpyrrolidin-3-yl]oxy}-6-ethyl-3-({4-[4-(4-methylpiperazin-1-yl)piperidin-1-yl]phenyl}amino)-pyrazine-2-carboxamide monomethanesulfonate], the “stability of the drug itself (in words)” value in data set [1] is listed as “stable”.
Turning to `C=CC(=O)N1CC[C@@H](Oc2nc(Nc3ccc(N4CCC(N5CCN(C)CC5)CC4)cc3)c(C(N)=O)nc2CC)C1` [compound A, 5-{[(3R)-1-Acryloylpyrrolidin-3-yl]oxy}-6-ethyl-3-({4-[4-(4-methylpiperazin-1-yl)piperidin-1-yl]phenyl}amino)-pyrazine-2-carboxamide], the “inhibitory action on an epidermal growth factor receptor (EGFR) mutant kinase” value in data set [2] is given as “confirmed”.
